Test results: US20100069493A1, “AQUEOUS PHARMACEUTICAL FORMULATION OF 4-[((4-CARBOXYBUTYL)-AMINO)METHYL]BENZOIC ACID” (BAYER HEALTHCARE AG, priority 2006, published 2010)
Values after ≈ are worked out from the molar mass of the structure shown.

Tests used:
Type in all cases: physicochemical
[1] = Saturation solubility of compound 1 in various buffer media; settings: aqueous buffer, thermodynamic from solid
From the text: (§1) However, there are limits to increasing the pH due to the use as infusion. Values of pH above pH 9.0 are borderline in relation to physiological tolerability.

[2] = Dilution of 0.05 mg/ml compound 1 / 0.01 M trometamol solutions with standard infusion solutions (Table 3); settings: trometamol 0.01 M
Experimental: Solutions comprising compound 1 in a concentration of 0.05 mg/ml and trometamol in a concentration of 0.01 M can be diluted problem-free with standard infusion solutions over a wide range. The dilution experiments shown in Table 3 were carried out concerning this:
All the dilution experiments were carried out in duplicate. […] It emerged that there is a marked decrease in the pH values to the region below 8.0 only with dilutions greater than 1:40. Precipitation of the active ingredient is no longer a worry with such great dilutions, because the solubility limit of compound 1 is no longer reached owing to the large amount of dilution medium.

[3] = Dilution experiments on 0.05 mg/ml solutions with and without trometamol (Table 2); settings: for Appearance of the solution: 0.05 mg/ml solution with trometamol 0.01 molar, pH before dilution 8.74
Experimental: Dilution experiments on solutions with an active ingredient content of 0.05 mg/ml have shown that these can be diluted in a pH-stable and thus problem-free manner over a wide range only if they are buffered with a sufficient quantity of trometamol.
Without use of trometamol and on use of trometamol in a concentration of only 0.001 M, the pH falls greatly even with slight dilution (1+5). There is a high risk in this case that the active ingredient will precipitate on dilution with other infusion solutions (Table 2 a-c).

[4] = pKa of the ionizable groups of compound 1
From the text: as §1

[5] = Titration experiments with 0.01 N hydrochloric acid (acid burden, precipitation)
Experimental: It was possible to show in titration experiments that an acid burden of 0.01 N hydrochloric acid in solutions without trometamol leads to such a large fall in pH even on addition of less than 1 ml to the total content of a 50 ml infusion bottle that the active ingredient precipitates. On addition of 0.001 M trometamol buffer, precipitations are to be observed on addition of about 5 ml of 0.01 N hydrochloric acid. A solution with a trometamol content of 0.01 M is by contrast stable to precipitations on addition of acid up to more than 35 ml of 0.01 N hydrochloric acid.

## O=C(O)CCCCN(CCc1ccccc1OCc1ccc(CCc2ccccc2)cc1)Cc1ccc(C(=O)O)cc1 [compound 1, 4-[((4-Carboxybutyl)-{2-[(4-phenethylbenzyl)oxy]phenethyl}amino)methyl]benzoic acid]
[1]; Ammonium chloride buffer solution, actual pH 9.5
  solubility: 75700 µg/mL (≈ 134000 µM)
[1]; Citric acid-phosphate buffer, actual pH 7.4
  solubility: 13.1 µg/mL (≈ 23.2 µM)
[1]; Citric acid-phosphate buffer, actual pH 8.0
  solubility: 64.2 µg/mL (≈ 113 µM)
[1]; Diethanolamine buffer solution, actual pH 10.0
  solubility: 89800 µg/mL (≈ 159000 µM)
[1]; HEPES buffer solution, actual pH 7.5
  solubility: 35.8 µg/mL (≈ 63.3 µM)
[1]; Phosphate buffer solution (0.2 M), actual pH 7.5
  solubility: 15.8 µg/mL (≈ 27.9 µM)
[1]; Phosphate buffer solution (0.3 M), actual pH 7.5
  solubility: 1.3 µg/mL (≈ 2.3 µM)
[1]; Phosphate buffer solution, actual pH 6.0
  solubility: 0.2 µg/mL (≈ 0.354 µM)
[1]; Phosphate buffer solution, actual pH 7.2
  solubility: 8.4 µg/mL (≈ 14.8 µM)
[1]; Phosphate buffer solution, actual pH 7.4
  solubility: 21.5 µg/mL (≈ 38 µM)
[1]; Phosphate buffer solution, actual pH 8.0
  solubility: 3.2 µg/mL (≈ 5.66 µM)
[1]; Phosphate buffer solution, actual pH 9.0
  solubility: 683 µg/mL (≈ 1210 µM)
[1]; Saline-phosphate buffer, actual pH 7.4
  solubility: 19 µg/mL (≈ 33.6 µM)
[1]; Sodium citrate buffer solution, actual pH 7.8
  solubility: 160 µg/mL (≈ 283 µM)
[1]; Tetrabutylammonium buffer solution, actual pH 7.0
  solubility: 12.8 µg/mL (≈ 22.6 µM)
[2]; all dilutions of Table 3, in duplicate
  Precipitation on dilution: No precipitations occurred
[2]; mixing ratio 1:2, NaCl soln, final volume 10 ml
  pH after dilution: 8.67
[2]; mixing ratio 1:4, NaCl soln, final volume 20 ml
  pH after dilution: 8.65
[2]; mixing ratio 1:10, Glucose soln, final volume 50 ml
  pH after dilution: 8.37
[2]; mixing ratio 1:10, NaCl soln, final volume 50 ml
  pH after dilution: 8.57
[2]; mixing ratio 1:10, Placebo soln, final volume 50 ml
  pH after dilution: 8.72
[2]; mixing ratio 1:10, Water, final volume 50 ml
  pH after dilution: 8.61
[2]; mixing ratio 1:20, NaCl soln, final volume 100 ml
  pH after dilution: 8.54
[2]; mixing ratio 1:40, NaCl soln, final volume 200 ml
  pH after dilution: 8.40
[2]; mixing ratio 1:200, NaCl soln, final volume 1000 ml
  pH after dilution: 7.85
[3]; 0.05 mg/ml solution with trometamol 0.001 molar, mixing ratio 1 + 5, NaCl soln, final volume 251 ml, pH before dilution 8.69
  pH after dilution: 8.43
[3]; 0.05 mg/ml solution with trometamol 0.001 molar, mixing ratio 1 + 10, NaCl soln, final volume 275 ml, pH before dilution 8.69
  pH after dilution: 8.05
[3]; 0.05 mg/ml solution with trometamol 0.001 molar, mixing ratio 1 + 250, NaCl soln, final volume 300 ml, pH before dilution 8.69
  pH after dilution: 6.61
[3]; mixing ratio 1 + 5, NaCl soln, final volume 251 ml
  Appearance of the solution: clear
[3]; mixing ratio 1 + 10, NaCl soln, final volume 275 ml
  Appearance of the solution: clear
[3]; mixing ratio 1 + 250, NaCl soln, final volume 300 ml
  Appearance of the solution: clear
[3]; 0.05 mg/ml solution without trometamol, mixing ratio 1 + 5, NaCl soln, final volume 251 ml, pH before dilution 8.51
  pH after dilution: 6.40
[3]; 0.05 mg/ml solution without trometamol, mixing ratio 1 + 10, NaCl soln, final volume 275 ml, pH before dilution 8.51
  pH after dilution: 6.58
[3]; 0.05 mg/ml solution without trometamol, mixing ratio 1 + 250, NaCl soln, final volume 300 ml, pH before dilution 8.51
  pH after dilution: 6.70
[4]
  pKa1: 4.0
  pKa2: 4.7
  pKa3: 8.3
[5]; solution with 0.001 M trometamol buffer, 50 ml infusion bottle
  Volume of 0.01 N hydrochloric acid at which precipitations are observed: about 5 ml
[5]; solution with trometamol content of 0.01 M, 50 ml infusion bottle
  Volume of 0.01 N hydrochloric acid up to which the solution is stable to precipitations: more than 35 ml
[5]; solution without trometamol, added to total content of a 50 ml infusion bottle
  Volume of 0.01 N hydrochloric acid at which the active ingredient precipitates: less than 1 ml
